From patent US20230040770A1, “HETEROCYCLIC COMPOUND AND USE THEREOF” (TAKEDA PHARMACEUTICAL COMPANY LIMITED, priority 2019, published 2023)

What was measured:
cynomolgus monkeys = assay: Evaluation of wake-promoting effects in cynomolgus monkeys (EEG/EMG); type: in vivo, cynomolgus monkey; conditions: Macaca fascicularis, time spent in wakefulness for 4 h after administration, read-out: Wakefulness time (% of vehicle treatment) (Mean); for response vs control in vivo at 3 mg/kg: 3 mg/kg p.o. at ZT12; for response vs control in vivo at 0.1 mg/kg / response vs control in vivo at 0.3 mg/kg: sc; for response vs control in vivo at 0.1 mg/kg: 0.1 mg/kg s.c. at ZT12; for response vs control in vivo at 0.3 mg/kg: 0.3 mg/kg s.c. at ZT12
Description: The wake-promoting effects were evaluated by measuring the electroencephalogram (EEG) and electromyogram (EMG) in cynomolgus monkeys. Under isoflurane anesthesia (1-5%, Pfizer Japan Inc., Tokyo, Japan), male cynomolgus monkeys (3-5 years old, Hamri Co., Ltd., Ibaraki, Japan) were surgically implanted with radio-telemetry transmitters (TL10M3-D70-EEE, Data Sciences International Inc., MN, USA). EEG electrodes were screwed into the skull at the parietal area. EMG electrodes were implanted on the cervical muscles. After the surgery, each monkey was given penicillin (100,000 units/head, i.m., Meiji Seika Pharma Co., Ltd., Tokyo, Japan), buprenorphine (0.02 mg/kg, i.m., Otsuka Pharmaceutical Co., Ltd., Tokyo, Japan) and prednisolone (1 mg/kg, s.c., Kyoritsu Seiyaku Co., Ltd., Tokyo, Japan) daily for one week. After at least a 1-month recovery period in home cages, the monkeys were habituated to the recording chamber placed in a soundproof room. EEG and EMG signals were recorded using the telemetry system (Dataquest ART software, Data Sciences International Inc., MN, USA) and the signals were analyzed using SleepSign software (Kissei Comtec Co., Ltd., Nagano, Japan). After confirming long sleep in dark phase in the experimental room, we used animals to examine the wake-promoting effect of compounds.
Oral test compounds (3 or 10 mg/kg) suspended in 0.5% methylcellulose aqueous solution, or vehicle (i.e., 0.5% methylcellulose aqueous solution) was administered orally (p.o.) to monkeys at zeitgeber time 12 (ZT12) in a volume of 5 mL/kg body weight in cross-over design or pre-post design (n=1-4). EEG and EMG recordings were performed for 4 h after the compound administration. The time spent in wakefulness for 4 h after administration (% of vehicle treatment) was calculated by using SleepSign.
Parenteral test compounds (0.1 or 0.3 mg/kg) dissolved in a mixed solution comprising 5% DMSO, 5% Cremophor EL, 20% PEG400 and 70% soluplus (1% (w/v)), or vehicle (i.e., a mixed solution comprising 5% DMSO, 5% Cremophor EL, 20% PEG400 and 70% soluplus (1% (w/v))) was administered subcutaneously (s.c.) to monkeys at ZT12 in a volume of 0.5 mL/kg body weight in a pre-post design (n=1-2). EEG and EMG recordings were performed for 4 h after the compound administration. The time spent in wakefulness for 4 h after administration (% of vehicle treatment) was calculated by using SleepSign.

[1] = Evaluation of microsome stability in human; type: in vitro ADME; conditions: pH 7.4; in vitro intrinsic metabolic clearance; human liver microsomes 0.2 mg/mL, 1 μmol/L test compound, NADPH-generating system
Description: Human liver microsomes were purchased from Xenotech, LLC (Lenexa, Kans.). An incubation mixture consisted of microsomes in 50 mmol/L KH2PO4—K2HPO4 phosphate buffer (pH 7.4) and 1 μmol/L test compound. The concentration of microsomal protein was 0.2 mg/mL. An NADPH-generating system (5 mmol/L MgCl2, 5 mmol/L glucose-6-phosphate, 0.5 mmol/L beta-NADP+ and 1.5 unit/mL glucose-6-phosphate dehydrogenase) was added to the incubation mixture with a half volume of the reaction mixture to initiate the enzyme reaction. The reaction was terminated 15 and 30 minutes after the initiation of the reaction by mixing the reaction mixture with acetonitrile, followed by centrifugation at 2500 rpm for 10 min. The supernatant was subjected to LC/MS/MS analysis. The metabolic rate constant was calculated as the slope of the remaining rate-time plot. The in vitro intrinsic metabolic clearance was calculated by dividing initial metabolic rate constant by microsomal protein in the incubation mixture.

[2] = molecular target: T1, human orexin type 2 receptor (Homo sapiens, UniProt O43614); assay: Measurement of orexin type 2 receptor agonist activity (calcium indicator fluorescence, CHO cells forcibly expressing human OX2 receptor); type: cell-based; conditions: compound at 3 μM; 0% = DMSO, 100% = orexin A (human) 10 nM
T1 construct: expressed in transfected cells
T1 sequence (O43614 1-444): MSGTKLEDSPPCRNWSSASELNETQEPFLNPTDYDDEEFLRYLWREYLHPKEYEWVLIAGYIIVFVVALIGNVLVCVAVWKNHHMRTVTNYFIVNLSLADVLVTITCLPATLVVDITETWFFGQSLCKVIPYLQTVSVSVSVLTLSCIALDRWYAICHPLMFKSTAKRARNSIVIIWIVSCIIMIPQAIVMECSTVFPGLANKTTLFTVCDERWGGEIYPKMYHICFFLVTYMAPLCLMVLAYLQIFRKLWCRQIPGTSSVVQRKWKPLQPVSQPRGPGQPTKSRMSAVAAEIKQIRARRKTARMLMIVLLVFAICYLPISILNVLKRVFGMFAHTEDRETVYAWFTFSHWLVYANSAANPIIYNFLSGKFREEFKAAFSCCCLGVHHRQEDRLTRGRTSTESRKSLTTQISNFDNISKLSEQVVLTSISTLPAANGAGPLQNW
Procedure, shortened: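 CHO-dhfr cells stably expressing human OX2R, loaded with Fluo-4 AM (30 min 37 °C, then 30 min RT), then given test compound. Calcium fluorescence read by FDSS over ~2 min. Activity (%) scaled from DMSO (0%) to 10 nM final orexin A (100%).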

Row | SMILES | response vs control in vivo at 3 mg/kg (cynomolgus monkeys; po) | microsomal CLint at 1 μmol/L [1] | OX2R agonist activity (3 μM, %) [2] | response vs control in vivo at 10 mg/kg (cynomolgus monkeys; po, 10 mg/kg p.o. at ZT12) | response vs control in vivo at 0.1 mg/kg (cynomolgus monkeys) | response vs control in vivo at 0.3 mg/kg (cynomolgus monkeys)
1 | CCS(=O)(=O)N[C@@H]1[C@H](Cc2cccc(-c3cccc(F)c3)c2F)N(C(=O)[C@H]2CCO2)CC1(F)F [Example 1, N-[(2S,3R)-2-[(2,3′-difluoro[1,1′-biphenyl]-3-yl)methyl]-4,4-difluoro-1-((2R)-oxetane-2-carbonyl)pyrrolidin-3-yl]ethanesulfonamide] | 234% | 75 µL/min/mg | 100% | – | – | –
2 | CC(C)(O)C(=O)N1CC(F)(F)[C@H](NS(C)(=O)=O)[C@@H]1Cc1cccc(-c2cc(F)cc(F)c2)c1F [Example 2, N-{(2S,3R)-4,4-difluoro-1-(2-hydroxy-2-methylpropanoyl)-2-[(2,3′,5′-trifluoro[1,1′-biphenyl]-3-yl)methyl]pyrrolidin-3-yl}methanesulfonamide] | 600% | 40 µL/min/mg | 106% | – | – | –
3 | CCS(=O)(=O)N[C@@H]1[C@H](Cc2cccc(-c3cc(F)cc(F)c3)c2F)N(C(=O)C(C)(C)O)CC1(F)F [Example 3, N-{(2S,3R)-4,4-difluoro-1-(2-hydroxy-2-methylpropanoyl)-2-[(2,3′,5′-trifluoro[1,1′-biphenyl]-3-yl)methyl]pyrrolidin-3-yl}ethanesulfonamide] | 613% | – | 106% | – | – | –
4 | CCS(=O)(=O)N[C@@H]1[C@H](Cc2cccc(-c3ccccc3)c2F)N(C(=O)C(C)(C)O)CC1(F)F [Example 5, N-[(2S,3R)-4,4-difluoro-2-[(2-fluoro[1,1′-biphenyl]-3-yl)methyl]-1-(2-hydroxy-2-methylpropanoyl)pyrrolidin-3-yl]ethanesulfonamide] | – | 12 µL/min/mg | 117% | 412% | – | –
5 | CCS(=O)(=O)N[C@@H]1[C@H](Cc2cccc(-c3cc(F)cc(F)c3)c2F)N(C(=O)[C@H]2CCO2)CC1(F)F [Example 56, N-{(2S,3R)-4,4-difluoro-1-((2R)-oxetane-2-carbonyl)-2-[(2,3′,5′-trifluoro[1,1′-biphenyl]-3-yl)methyl]pyrrolidin-3-yl}ethanesulfonamide] | 417% | 135 µL/min/mg | 95% | – | – | –
6 | CCS(=O)(=O)N[C@@H]1[C@H](Cc2cccc(-c3cccc(F)c3F)c2F)N(C(=O)C(C)(C)O)CC1(F)F [Example 66, N-{(2S,3R)-4,4-difluoro-1-(2-hydroxy-2-methylpropanoyl)-2-[(2,2′,3′-trifluoro[1,1′-biphenyl]-3-yl)methyl]pyrrolidin-3-yl}ethanesulfonamide] | 463% | 61 µL/min/mg | 104% | – | – | –
7 | CCS(=O)(=O)N[C@@H]1[C@H](Cc2cccc(-c3cc(F)ccc3F)c2F)N(C(=O)C(C)(C)O)CC1(F)F [Example 67, N-{(2S,3R)-4,4-difluoro-1-(2-hydroxy-2-methylpropanoyl)-2-[(2,2′,5′-trifluoro[1,1′-biphenyl]-3-yl)methyl]pyrrolidin-3-yl}ethanesulfonamide] | 356% | 4 µL/min/mg | 111% | – | – | –
8 | Cc1cccc(-c2cccc(C[C@H]3[C@@H](NS(=O)(=O)N(C)C)C(F)(F)CN3C(=O)N3CCC3)c2F)c1 [Example 443, N′-{(2S,3R)-1-(azetidine-1-carbonyl)-4,4-difluoro-2-[(2-fluoro-3′-methyl[1,1′-biphenyl]-3-yl)methyl]pyrrolidin-3-yl}-N,N-dimethylsulfuric diamide] | – | – | 90% | – | 532% | –
9 | CCS(=O)(=O)N[C@H]1[C@@H](F)CN(C(=O)N2CCC2)[C@H]1Cc1cccc(-c2cc(F)cc(F)c2)c1F [Example 450, N-{(2S,3R,4S)-1-(azetidine-1-carbonyl)-4-fluoro-2-[(2,3′,5′-trifluoro[1,1′-biphenyl]-3-yl)methyl]pyrrolidin-3-yl}ethanesulfonamide] | – | – | 86% | – | – | 814%
10 | CCS(=O)(=O)N[C@H]1[C@@H](F)CN(C(=O)N2CCC2)[C@H]1Cc1cccc(-c2cccc(C)c2)c1F [Example 451, N-{(2S,3R,4S)-1-(azetidine-1-carbonyl)-4-fluoro-2-[(2-fluoro-3′-methyl[1,1′-biphenyl]-3-yl)methyl]pyrrolidin-3-yl}ethanesulfonamide] | – | – | 82% | – | 225% | –
11 | Cc1cccc(-c2cccc(C[C@H]3[C@@H](NS(=O)(=O)N(C)C)[C@@H](F)CN3C(=O)N(C)C)c2F)c1 [Example 459, (2S,3R,4S)-3-[(dimethylsulfamoyl)amino]-4-fluoro-2-[(2-fluoro-3′-methyl[1,1′-biphenyl]-3-yl)methyl]-N,N-dimethylpyrrolidine-1-carboxamide] | – | – | 78% | – | – | 431%
12 | Cc1cccc(-c2cccc(C[C@H]3[C@@H](NS(=O)(=O)N(C)C)[C@@H](F)CN3C(=O)C3(O)CCC3)c2F)c1 [Example 462, N′-[(2S,3R,4S)-4-fluoro-2-[(2-fluoro-3′-methyl[1,1′-biphenyl]-3-yl)methyl]-1-(1-hydroxycyclobutane-1-carbonyl)pyrrolidin-3-yl]-N,N-dimethylsulfuric diamide] | – | – | 78% | – | – | 365%
13 | Cc1cccc(-c2cccc(C[C@H]3[C@@H](NS(=O)(=O)N(C)C)[C@@H](F)CN3C(=O)N3CCC3)c2F)c1 [Example 463, N′-{(2S,3R,4S)-1-(azetidine-1-carbonyl)-4-fluoro-2-[(2-fluoro-3′-methyl[1,1′-biphenyl]-3-yl)methyl]pyrrolidin-3-yl}-N,N-dimethylsulfuric diamide] | – | – | 79% | – | 483% | –
14 | CN(C)S(=O)(=O)N[C@@H]1[C@H](Cc2cccc(-c3cc(F)cc(F)c3)c2F)N(C(=O)[C@H]2CCO2)CC1(F)F [Example 542, N′-{(2S,3R)-4,4-difluoro-1-[(2R)-oxetane-2-carbonyl]-2-[(2,3′,5′-trifluoro[1,1′-biphenyl]-3-yl)methyl]pyrrolidin-3-yl}-N,N-dimethylsulfuric diamide] | – | – | 100% | – | – | 505%
